Assay results from the supplement of paper PMC10883282.

Experiments:
Assay in all cases: relative viability vs DMSO control (72 h) (fraction); higher = more viable cells
A204 = tested on: A204
Method in brief: (§1)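 Sarcoma cell lines in 384-well plates, seeded to reach 80–90% confluence, were given compound after 24 h and kept 72 h at 37 °C, 5% CO2, with 0.1% DMSO vehicle and a 5 µM positive control. Relative viability came from ATPLite as percent growth, averaged over up to triplicate wells. On the rescaled values, 1 equals full and 0 equals none.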

G401 = tested on: G401
Method in brief: as §1

HS729 = tested on: HS729
Method in brief: as §1

KHOS-NP = tested on: KHOS-NP
Method in brief: as §1

MES-SA = tested on: MES-SA
Method in brief: as §1

RD = tested on: RD
Method in brief: as §1

SK-ES-1 = tested on: SK-ES-1
Method in brief: as §1

SK-LMS-1 = tested on: SK-LMS-1
Method in brief: as §1

SW684 = tested on: SW684
Method in brief: as §1

SW872 = tested on: SW872
Method in brief: as §1

SYO-1 = tested on: SYO-1
Method in brief: as §1

VA-ES-BJ = tested on: VA-ES-BJ
Method in brief: as §1

CNC(=O)c1cc(Oc2ccc(NC(=O)Nc3ccc(Cl)c(C(F)(F)F)c3)cc2)ccn1 [Sorafenib]
Conditions | relative viability
A204, 0.00017 µM | 1.07
A204, 0.00051 µM | 1.1
A204, 0.00152 µM | 1.09
A204, 0.00457 µM | 1.11
A204, 0.01372 µM | 1.06
A204, 0.04115 µM | 1.08
A204, 0.1235 µM | 0.914
A204, 0.3704 µM | 0.567
A204, 1.111 µM | 0.51
A204, 3.333 µM | 0.385
A204, 10 µM | 0.157
G401, 0.00017 µM | 0.997
G401, 0.00051 µM | 1
G401, 0.00152 µM | 1.01
G401, 0.00457 µM | 1.01
G401, 0.01372 µM | 1.04
G401, 0.04115 µM | 1.01
G401, 0.1235 µM | 1.02
G401, 0.3704 µM | 0.988
G401, 1.111 µM | 0.893
G401, 3.333 µM | 0.684
G401, 10 µM | 0.147
HS729, 0.00017 µM | 0.948
HS729, 0.00051 µM | 0.966
HS729, 0.00152 µM | 0.939
HS729, 0.00457 µM | 0.978
HS729, 0.01372 µM | 0.946
HS729, 0.04115 µM | 1.02
HS729, 0.1235 µM | 0.937
HS729, 0.3704 µM | 0.85
HS729, 1.111 µM | 0.858
HS729, 3.333 µM | 0.811
HS729, 10 µM | 0.624
KHOS-NP, 0.00017 µM | 1.09
KHOS-NP, 0.00051 µM | 1.09
KHOS-NP, 0.00152 µM | 1.1
KHOS-NP, 0.00457 µM | 1.09
KHOS-NP, 0.01372 µM | 1.08
KHOS-NP, 0.04115 µM | 1.1
KHOS-NP, 0.1235 µM | 1.103
KHOS-NP, 0.3704 µM | 1.08
KHOS-NP, 1.111 µM | 0.993
KHOS-NP, 3.333 µM | 0.534
KHOS-NP, 10 µM | 0.375
MES-SA, 0.00017 µM | 0.928
MES-SA, 0.00051 µM | 0.925
MES-SA, 0.00152 µM | 0.909
MES-SA, 0.00457 µM | 0.934
MES-SA, 0.01372 µM | 0.923
MES-SA, 0.04115 µM | 0.949
MES-SA, 0.1235 µM | 1.01
MES-SA, 0.3704 µM | 1.03
MES-SA, 1.111 µM | 0.985
MES-SA, 3.333 µM | 0.716
MES-SA, 10 µM | 0.135
RD, 0.00017 µM | 1.11
RD, 0.00051 µM | 1.11
RD, 0.00152 µM | 1.09
RD, 0.00457 µM | 1.12
RD, 0.01372 µM | 1.09
RD, 0.04115 µM | 1.12
RD, 0.1235 µM | 1.14
RD, 0.3704 µM | 1.13
RD, 1.111 µM | 1.04
RD, 3.333 µM | 0.9
RD, 10 µM | 0.504
SK-ES-1, 0.00017 µM | 0.978
SK-ES-1, 0.00051 µM | 1.01
SK-ES-1, 0.00152 µM | 1.04
SK-ES-1, 0.00457 µM | 1.05
SK-ES-1, 0.01372 µM | 1.07
SK-ES-1, 0.04115 µM | 1.01
SK-ES-1, 0.1235 µM | 1.06
SK-ES-1, 0.3704 µM | 1.07
SK-ES-1, 1.111 µM | 0.96
SK-ES-1, 3.333 µM | 0.8855
SK-ES-1, 10 µM | 0.252
SK-LMS-1, 0.00017 µM | 1.1
SK-LMS-1, 0.00051 µM | 1.07
SK-LMS-1, 0.00152 µM | 1.11
SK-LMS-1, 0.00457 µM | 1.1
SK-LMS-1, 0.01372 µM | 1.1
SK-LMS-1, 0.04115 µM | 1.12
SK-LMS-1, 0.1235 µM | 1.05
SK-LMS-1, 0.3704 µM | 1.09
SK-LMS-1, 1.111 µM | 1.07
SK-LMS-1, 3.333 µM | 0.713
SK-LMS-1, 10 µM | 0.0735
SW684, 0.00017 µM | 1.2
SW684, 0.00051 µM | 1.2
SW684, 0.00152 µM | 1.18
SW684, 0.00457 µM | 1.19
SW684, 0.01372 µM | 1.16
SW684, 0.04115 µM | 1.2
SW684, 0.1235 µM | 1.23
SW684, 0.3704 µM | 1.27
SW684, 1.111 µM | 1.32
SW684, 3.333 µM | 0.938
SW684, 10 µM | 0.276
SW872, 0.00017 µM | 1.09
SW872, 0.00051 µM | 1.09
SW872, 0.00152 µM | 1.05
SW872, 0.00457 µM | 1.06
SW872, 0.01372 µM | 1.09
SW872, 0.04115 µM | 1.09
SW872, 0.1235 µM | 1.07
SW872, 0.3704 µM | 1.09
SW872, 1.111 µM | 1.07
SW872, 3.333 µM | 1.02
SW872, 10 µM | 0.553
SYO-1, 0.00017 µM | 0.968
SYO-1, 0.00051 µM | 0.967
SYO-1, 0.00152 µM | 0.96
SYO-1, 0.00457 µM | 0.95
SYO-1, 0.01372 µM | 0.948
SYO-1, 0.04115 µM | 0.944
SYO-1, 0.1235 µM | 0.916
SYO-1, 0.3704 µM | 0.773
SYO-1, 1.111 µM | 0.626
SYO-1, 3.333 µM | 0.509
SYO-1, 10 µM | 0.137
VA-ES-BJ, 0.00017 µM | 1.04
VA-ES-BJ, 0.00051 µM | 1.07
VA-ES-BJ, 0.00152 µM | 1.07
VA-ES-BJ, 0.00457 µM | 1.06
VA-ES-BJ, 0.01372 µM | 1.07
VA-ES-BJ, 0.04115 µM | 1.09
VA-ES-BJ, 0.1235 µM | 1.11
VA-ES-BJ, 0.3704 µM | 1.143
VA-ES-BJ, 1.111 µM | 1.15
VA-ES-BJ, 3.333 µM | 1.14
VA-ES-BJ, 10 µM | 0.436
